In patent US20180049996A1, “THERAPEUTIC AGENT FOR CHRONIC RESPIRATORY DISEASE AND COMPOSITION FOR INHIBITING CARDIAC FIBROSIS” (NIPPON HYPOX LABORATORIES INCORPORATED, priority 2015, published 2018):
Marks after values point to notes of the source that are not given here.

Legend:
[1] = test system: Myocardial Disorder Induced by Doxorubicin; experiment: Relative weights of the hearts, myocardial disorder induced by doxorubicin; type: in vivo, female SD rats; conditions: Test group 2: doxorubicin 13 mg/kg + HTHQ 50 mg/kg oral
From the text: Doxorubicin is used to produce disease-model animals of cardiomyopathy. […] The recombinant human erythropoietin (rHuEPO) is mainly used in the treatment of renal anemia etc., and has the effect to protect myocardium. The test group 3 is used to confirm the presence or absence of the inhibitory effect brought about by combining HTHQ and rHuEPO on myocardial disorder. […] Recombinant human erythropoietin was daily administered to the rats in test group 3 starting from 3 days before the administration of doxorubicin by intravenous injection. The number of animals in each group was 16. 8 animals of each group were sacrificed after collecting blood on day 7 and 14 after the administration of doxorubicin, and the autopsy of the hearts, the calculation of the relative weights of the hearts, the histopathologic examination of the hearts and the hematological examination were conducted. Myocardium is hypertrophied by fibrosing and the weight of the myocardium increases, and the relative weight of the heart tends to increase. […] Also, there was no significant difference between the other groups on day 7 and 14 after the administration (p<0.05).

[2] = test system: IL-6; experiment: IL-6 level in BAL fluid (ELISA), COPD model; type: in vivo, C57BL/6N mice; conditions: HTHQ 10 and 20 mg/kg/day oral; tobacco smoke 10 days + LPS; compared to COPD model group
Description: 6 week old male SPF C57BL/6N mice, 20 to 25 g of body weight, were purchased from CORETEC INC. (South Korea).
The tests were conducted as follows. The mice in the COPD (chronic obstructive pulmonary disease) model group of the test groups were exposed to tobacco smoke for 1 hour per day (8 cigarettes/day) for 10 days and LPS (5 μg/50 μL/mouse) was intranasally administered to the mice on day 8 after the start of the tests. […]
The mice in the test groups were euthanized 72 hours after the LPS administration and the mice in the normal control group were euthanized on day 11 after the start of the tests by intraperitoneal injection of pentobarbital (Hanrimu pharmaceutical, South Korea) at 50 mg/kg and then the bronchi were excised. […] After preparing slide samples from 100 μL of BAL cell fluid using Cytospin (4° C., 1000 rpm×5 min), the cell numbers of inflammatory cells (neutrophil, macrophages) present in the BAL fluid were counted using a Diff-Quik stain kit.
The supernatant of the BAL fluid stored was taken out of the super-cryostat, and TNF-α and IL-6 levels were measured as the levels of pro-inflammatory cytokines in the supernatant. A quantitative ELISA kit (a product from Invitrogen) and an ELISA analyzer (a product from Molecular Devices, LLC.) were used for the measurement and the measurement wavelength was 450 nm.

[3] = test system: ovalbumin-specific IgE; experiment: Content of ovalbumin-specific IgE in serum, ovalbumin asthma model; type: in vivo, BALB/c female mice; conditions: HTHQ 20 and 40 mg/kg/day oral; day 25; no significant difference
Description: 6 week old BALB/c female mice were purchased and the mice were divided into 5 groups with 5 animals per group shown in Table 3 below after habituation breeding of about 2 weeks.
The test was conducted on the schedule of sensitization, causing diseases and administration of test materials shown in FIG. 12. “IP” in FIG. 12 refers to ovalbumin sensitization treatment by the intraperitoneal administration of ovalbumin/aluminum hydroxide, and “IH” refers to inhalation exposure treatment of ovalbumin, and “PO” refers to the administration of the test materials. Specifically, 200 μL of PBS (pH 7.4) emulsified by the addition of 20 μg ovalbumin and 2 mg aluminum hydroxide as an adjuvant was intraperitoneally administered to all mice in 4 groups except the normal control group (the initial sensitization, day 1 of the test). Then, after 2 weeks (day 14 of the test), the second sensitization treatment was conducted in the same way as the initial sensitization. […]
On day 25 of the test, the total contents of IgE and contents of ovalbumin-specific IgE in serums were measured using blood collected from orbital sinuses of the mice. An ELISA kit for IgE measurement (a product from BioLegend, Inc.) was used for the measurement and the contents were measured at wavelength of 450 nm using a micro plate reader (a product from Bio-Rad Laboratories, Inc.).

CCCCCCOc1cc(C)c(O)c(C)c1C [HTHQ, 2,3,5-trimethylhydroquinone-1-hexyl ether]
relative weight of the heart ([1]; Day 7 after administration, p<0.05 vs Test group 1): 0.4208 ± 0.0409^a %
relative weight of the heart ([1]; Day 14 after administration): 0.3658 ± 0.0357%
IL-6 level in BAL fluid [2]: significantly reduced
amount of ovalbumin-specific IgE in serum [3]: a declining trend was seen
